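Cultured in 96-well plates, cells were exposed to test compound for 48 hours across five concentrations. GI50 is the concentration that inhibits growth by half.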 The source made the active and inactive calls. No stated cut-off is given here; in the data, active = GI50 up to about 1.1 µM and inactive = higher.
What was measured:
Test in all cases: DTP human tumour cell line panel, 48 h
HCT-15 = system: HCT-15
SK-OV-3 = system: SK-OV-3
SF-295 = system: SF-295
SNB-19 = system: SNB-19
UO-31 = system: UO-31
EKVX = system: EKVX
CCRF-CEM = system: CCRF-CEM
A498 = system: A498
HT-29 = system: HT-29
HOP-92 = system: HOP-92
MOLT-4 = system: MOLT-4
OVCAR-5 = system: OVCAR-5
SNB-75 = system: SNB-75
OVCAR-4 = system: OVCAR-4
OVCAR-3 = system: OVCAR-3
Malme-3M = system: Malme-3M
LOX IMVI = system: LOX IMVI
K562 = system: K562
SW-620 = system: SW-620
RPMI-8226 = system: RPMI-8226

Cc1ccc(OCC2OC(n3cnc4c(Cl)nc(N)nc43)CC2Oc2ccc(C)cc2)cc1 (stereo unspecified)
GI50 (HCT-15): 31 µM
GI50 (SK-OV-3): > 69 µM (inactive)
GI50 (SF-295): 15.2 µM (inactive)
GI50 (SNB-19): 38 µM (inactive)
GI50 (UO-31): 4.58 µM (inactive)
GI50 (EKVX): 9.2 µM (inactive)
GI50 (CCRF-CEM): > 74.6 µM (inactive)
GI50 (A498): > 75 µM (inactive)
GI50 (HT-29): 46.1 µM (inactive)
GI50 (HOP-92): 11 µM (inactive)
GI50 (MOLT-4): 25.2 µM (inactive)
GI50 (OVCAR-5): 34.3 µM (inactive)
GI50 (SNB-75): > 70.8 µM (inactive)
GI50 (OVCAR-4): 21.4 µM (inactive)
GI50 (OVCAR-3): 21.6 µM (inactive)
GI50 (Malme-3M): 24.5 µM (inactive)
GI50 (LOX IMVI): 47.9 µM (inactive)
GI50 (K562): 29.4 µM (inactive)
GI50 (SW-620): > 55.3 µM (inactive)
GI50 (RPMI-8226): 33 µM (inactive)

COC(=O)C(F)C(Br)C(=O)OC (stereo unspecified)
GI50 (HCT-15): 1.82 µM
GI50 (SK-OV-3): 18.5 µM (inactive)
GI50 (SF-295): 26.4 µM (inactive)
GI50 (SNB-19): 30.7 µM (inactive)
GI50 (UO-31): 1.89 µM (inactive)
GI50 (EKVX): 2.19 µM (inactive)
GI50 (CCRF-CEM): 0.684 µM (active)
GI50 (A498): 20.9 µM (inactive)
GI50 (HT-29): 2.57 µM (inactive)
GI50 (HOP-92): 2.56 µM (inactive)
GI50 (MOLT-4): 0.9 µM (active)
GI50 (OVCAR-5): 16.4 µM (inactive)
GI50 (SNB-75): 12.3 µM (inactive)
GI50 (OVCAR-4): 3.39 µM (inactive)
GI50 (OVCAR-3): 2.11 µM (inactive)
GI50 (Malme-3M): 6.47 µM (inactive)
GI50 (LOX IMVI): 6.41 µM (inactive)
GI50 (K562): 1.63 µM (inactive)
GI50 (SW-620): 1.95 µM (inactive)
GI50 (RPMI-8226): 1.41 µM (inactive)

COc1cc2cc(C(=O)N3CC(CCl)c4ccc(NO)cc43)[nH]c2c(OC)c1OC (stereo unspecified)
GI50 (HCT-15): 0.243 µM
GI50 (SK-OV-3): 0.284 µM (active)
GI50 (SF-295): 0.0836 µM (active)
GI50 (SNB-19): 0.264 µM (active)
GI50 (UO-31): 0.0325 µM (active)
GI50 (EKVX): 0.35 µM (active)
GI50 (CCRF-CEM): 0.137 µM (active)
GI50 (A498): 0.0675 µM (active)
GI50 (HT-29): 0.0646 µM (active)
GI50 (HOP-92): 0.352 µM (active)
GI50 (MOLT-4): 0.184 µM (active)
GI50 (OVCAR-5): 0.15 µM (active)
GI50 (SNB-75): 0.177 µM (active)
GI50 (OVCAR-4): 0.177 µM (active)
GI50 (OVCAR-3): 0.257 µM (active)
GI50 (Malme-3M): 0.164 µM (active)
GI50 (LOX IMVI): 0.164 µM (active)
GI50 (K562): 0.139 µM (active)
GI50 (SW-620): 0.166 µM (active)
GI50 (RPMI-8226): 0.117 µM (active)

CC(C)NC(=O)OCc1c(COC(=O)NC(C)C)c(-c2ccc[n+](COC(=O)C3CCCCC3)c2)n2c1CCC2
GI50 (HCT-15): 85.5 µM
GI50 (SK-OV-3): 39.1 µM (inactive)
GI50 (SF-295): 47.8 µM (inactive)
GI50 (SNB-19): > 100 µM (inactive)
GI50 (UO-31): 40.6 µM (inactive)
GI50 (EKVX): > 100 µM (inactive)
GI50 (CCRF-CEM): > 100 µM (inactive)
GI50 (A498): 29.2 µM (inactive)
GI50 (HT-29): 90.6 µM (inactive)
GI50 (HOP-92): 39.4 µM (inactive)
GI50 (MOLT-4): 45.5 µM (inactive)
GI50 (OVCAR-5): 78.3 µM (inactive)
GI50 (SNB-75): 46.8 µM (inactive)
GI50 (OVCAR-4): 40.6 µM (inactive)
GI50 (OVCAR-3): > 100 µM (inactive)
GI50 (Malme-3M): 62.5 µM (inactive)
GI50 (LOX IMVI): 31.6 µM (inactive)
GI50 (K562): > 100 µM (inactive)
GI50 (SW-620): 57.4 µM (inactive)
GI50 (RPMI-8226): > 100 µM (inactive)

Cc1cc(=O)oc2c1cc1ccc3cccc4ccc2c1c34
GI50 (HCT-15): > 100 µM
GI50 (SK-OV-3): > 100 µM (inactive)
GI50 (SF-295): 40.4 µM (inactive)
GI50 (SNB-19): 64.7 µM (inactive)
GI50 (UO-31): > 100 µM (inactive)
GI50 (EKVX): > 100 µM (inactive)
GI50 (CCRF-CEM): > 100 µM (inactive)
GI50 (A498): > 100 µM (inactive)
GI50 (HT-29): > 100 µM (inactive)
GI50 (HOP-92): 31.5 µM (inactive)
GI50 (MOLT-4): > 100 µM (inactive)
GI50 (SNB-75): 41 µM (inactive)
GI50 (OVCAR-3): > 100 µM (inactive)
GI50 (Malme-3M): > 100 µM (inactive)
GI50 (LOX IMVI): > 100 µM (inactive)
GI50 (K562): > 100 µM (inactive)
GI50 (SW-620): > 100 µM (inactive)
GI50 (RPMI-8226): > 100 µM (inactive)

O=C1Nc2ccc(Cl)cc2/C1=C\c1c(Cl)nc2sccn12
GI50 (HCT-15): 2.67 µM
GI50 (SK-OV-3): 36.8 µM (inactive)
GI50 (SF-295): 3.96 µM (inactive)
GI50 (SNB-19): > 100 µM (inactive)
GI50 (UO-31): > 100 µM (inactive)
GI50 (CCRF-CEM): 10.6 µM (inactive)
GI50 (A498): 0.0632 µM (active)
GI50 (HOP-92): > 100 µM (inactive)
GI50 (MOLT-4): 2.59 µM (inactive)
GI50 (OVCAR-5): 14.7 µM (inactive)
GI50 (SNB-75): > 100 µM (inactive)
GI50 (OVCAR-4): > 100 µM (inactive)
GI50 (OVCAR-3): 3.32 µM (inactive)
GI50 (Malme-3M): > 100 µM (inactive)
GI50 (LOX IMVI): 7.48 µM (inactive)
GI50 (K562): 0.156 µM (active)
GI50 (SW-620): 14.8 µM (inactive)
GI50 (RPMI-8226): 0.0514 µM (active)

Cc1ccc(C2CC(c3cccc([N+](=O)[O-])c3)=Nc3ccccc3S2)cc1 (stereo unspecified)
GI50 (HCT-15): 25.5 µM
GI50 (SK-OV-3): > 100 µM (inactive)
GI50 (SF-295): 50.7 µM (inactive)
GI50 (SNB-19): > 58.3 µM (inactive)
GI50 (UO-31): 20.8 µM (inactive)
GI50 (EKVX): > 88.1 µM (inactive)
GI50 (CCRF-CEM): 23.2 µM (inactive)
GI50 (A498): > 54.3 µM (inactive)
GI50 (HT-29): 32.4 µM (inactive)
GI50 (HOP-92): 7.01 µM (inactive)
GI50 (MOLT-4): 25.5 µM (inactive)
GI50 (OVCAR-5): > 100 µM (inactive)
GI50 (SNB-75): 21 µM (inactive)
GI50 (OVCAR-4): 44.6 µM (inactive)
GI50 (OVCAR-3): 28.5 µM (inactive)
GI50 (Malme-3M): > 88.9 µM (inactive)
GI50 (LOX IMVI): 21.6 µM (inactive)
GI50 (K562): 20.6 µM (inactive)
GI50 (SW-620): 16.1 µM (inactive)
GI50 (RPMI-8226): 7.83 µM (inactive)

O=C1NC(O)CCN1C1OC(CO)C(O)C1O (stereo unspecified)
GI50 (HCT-15): > 250 µM
GI50 (SK-OV-3): > 250 µM (inactive)
GI50 (SF-295): > 250 µM (inactive)
GI50 (SNB-19): > 250 µM (inactive)
GI50 (UO-31): > 250 µM (inactive)
GI50 (EKVX): > 250 µM (inactive)
GI50 (CCRF-CEM): > 250 µM (inactive)
GI50 (A498): > 211 µM (inactive)
GI50 (HT-29): > 250 µM (inactive)
GI50 (HOP-92): > 250 µM (inactive)
GI50 (MOLT-4): > 250 µM (inactive)
GI50 (OVCAR-5): > 92 µM (inactive)
GI50 (SNB-75): > 250 µM (inactive)
GI50 (OVCAR-4): > 250 µM (inactive)
GI50 (OVCAR-3): > 250 µM (inactive)
GI50 (Malme-3M): > 250 µM (inactive)
GI50 (LOX IMVI): > 136 µM (inactive)
GI50 (K562): > 250 µM (inactive)
GI50 (SW-620): > 250 µM (inactive)
GI50 (RPMI-8226): > 250 µM (inactive)

CC/C=C\C/C=C\C/C=C\CCCCCCCC(=O)OC [METHYL LINOLENATE]
GI50 (HCT-15): > 100 µM
GI50 (SK-OV-3): > 100 µM (inactive)
GI50 (SF-295): > 100 µM (inactive)
GI50 (SNB-19): > 100 µM (inactive)
GI50 (UO-31): > 100 µM (inactive)
GI50 (EKVX): > 100 µM (inactive)
GI50 (CCRF-CEM): 45.8 µM (inactive)
GI50 (A498): > 100 µM (inactive)
GI50 (HT-29): > 100 µM (inactive)
GI50 (HOP-92): > 100 µM (inactive)
GI50 (MOLT-4): 87.5 µM (inactive)
GI50 (OVCAR-5): > 100 µM (inactive)
GI50 (SNB-75): 67.6 µM (inactive)
GI50 (OVCAR-4): > 100 µM (inactive)
GI50 (OVCAR-3): > 100 µM (inactive)
GI50 (Malme-3M): > 100 µM (inactive)
GI50 (LOX IMVI): 18.9 µM (inactive)
GI50 (K562): 45.5 µM (inactive)
GI50 (SW-620): > 100 µM (inactive)
GI50 (RPMI-8226): 99.3 µM (inactive)

From ChEMBL document CHEMBL1201862, “PubChem BioAssay data set” (2004)
